Assay results as given in patent US20160060687A1, “METHODS AND COMPOSITIONS TO IDENTIFY, QUANTIFY, AND CHARACTERIZE TARGET ANALYTES AND BINDING MOIETIES” (CDI Laboratories, Inc., priority 2014, published 2016).
“Also recorded” adds a separate entry of the source.

Tested on: MPG2
Test: Protein-DNA DAPPL binding assay on a protein microarray of two human TF proteins and BSA, ligation products detected by PCR
Conditions: array of two human TF proteins and BSA; Sanger sequencing, six of six clones as expected
Excerpt: A DAPPL approach was applied to establish a comprehensive screen for protein-DNA interactions. As illustrated in FIG. 19A and FIG. […] Meanwhile, a pool of DNA polynucleotides was synthesized that each contains eight random nucleotides with a CpG in the middle and two fixed sequences on both sides. After a double-stranded DNA pool was made with a Klenow reaction, bacterial enzyme SssI is used to methylate the CpG, followed by treatment with a T4 DNA polymerase to generate a 5′-overhang. This pool of 65,536 species was then incubated on the TF array, washed, and the captured DNA fragments were ligated to the address polynucleotides. In each ligated sequence, a mCpG containing 8-mer sequence is now connected to an address oligo representing the TF protein that has captured this 8-mer in the binding assay. Therefore, it is an “all-to-all” screening approach. […] The ligated products were then recovered from the slide and PCR-amplified. […] Bioinformatics analyses were performed to determine whether there was any enrichment of consensus motifs for each TF protein.
After cloning the PCR fragments, Sanger sequencing was performed to determine the PCR-amplified sequences. Six of six sequenced clones gave the expected sequences from the ligation on the array.

M62: methylated DNA motif M62 (SEQ ID NO: 10) used as probe on the TF protein microarray (DNA ATATGCATCG; methylated DNA motif, methylated positions not given here)
capture of the methylated DNA motif by the TF spot (recovery of ligation products by PCR): captures; also recorded: successfully recovered using a PCR reaction only from the expected TF spot
